The structures appear in SMILES notation. ≈ marks a conversion by molar mass, not a printed value.

In patent publication US3970642A, “Process for the conversion of niddamycin to leucomycin A1, leucomycin A3, carbomycin B and other antibiotics and related 3-O-esters” (Abbott Laboratories, priority 1974, dated 1976) one finds MIC data, which are given here for 5 compounds.

Format in all cases: cell-based
Assay [1] deals with Streptococcus pyogenes C203. Put plainly: Standard two-fold tube dilution test, activity against Streptococcus pyogenes C203. Particulars: brain-heart infusion broth, 24 hours at 37°C, read-out: Minimum Inhibitory Concentration. The procedure: (§1) Three nid damycin and two dihydroniddamycin compounds were tested for their activity against Streptococcus pyogenes C203, and Diplococcus pneumoniae 6301 and Mycoplasma pneumoniae FH.
(§2) A standard two-fold tube dilution test was used. The medium inoculum were varied with each culture.
In the test for activity against Streptococcus pyogenes C203, 5 ml. portions of brain-heart infusion broth were used with 0.1 ml. of 1:100 dilution culture. The test was incubated for 24 hours at 37°C.

For assay [2], the system named is Diplococcus pneumoniae 6301. As to the kind of experiment: Standard two-fold tube dilution test, activity against Diplococcus pneumoniae 6301. Conditions: Streptococcus pneumoniae, brain-heart infusion broth and 20% horse serum, 24 hours at 37°C, read-out: Minimum Inhibitory Concentration. The procedure:
as §1, §2
In the test for activity against Diplococcus pneumoniae 6301, 5 ml. portions of brain-heart infusion broth and 20% horse serum were used with 0.1 ml. of 1:100 dilution culture. The test was incubated for 24 hours at 37°C.

The subject of a further assay is Mycoplasma pneumoniae FH. As to the kind of experiment: Standard two-fold tube dilution test, activity against Mycoplasma pneumoniae FH. Particulars: 144 h, PPLO broth, six days at 37°C, read-out: Minimum Inhibitory Concentration. As to the method: as §1, §2
In the test for activity against Mycoplasma pneumoniae FH, 4.5 ml. portions of PPLO broth were used with 0.5 ml. of 1:100 dilution culture. The test was incubated for six days at 37°C.

As to `COC(CC1CC(C)C(=O)C=CC=CCC(C)OC(=O)CC(O)C(OC)C1OC1OC(C)C(OC2CC(C)(O)C(OC(=O)CC(C)C)C(C)O2)C(N(C)C)C1O)OC` (stereo not drawn) [Compound 2, Niddamycin dimethyl acetal], the results for the MIC (in assay [1]; in assay [2]; with Mycoplasma pneumoniae FH) were 0.78 mg/L (≈ 0.94 µM), below 1.56 mg/L and 25 mg/L (≈ 30.1 µM), respectively.

Turning to `COC(CC1CC(C)C(=O)C=CC=CCC(C)OC(=O)CC(OC(C)=O)C(OC)C1OC1OC(C)C(OC2CC(C)(O)C(OC(=O)CC(C)C)C(C)O2)C(N(C)C)C1OC(C)=O)OC` (stereo not drawn) [Compound 3B, 2',3-Di-(O)-acetylniddamycin dimethyl acetal], the MIC (in assay [1]; in assay [2]; in the assay on Mycoplasma pneumoniae FH) was above 100 mg/L each time.

`COC(CC1CC(C)C(O)C=CC=CCC(C)OC(=O)CC(O)C(OC)C1OC1OC(C)C(OC2CC(C)(O)C(OC(=O)CC(C)C)C(C)O2)C(N(C)C)C1O)OC` (stereo not drawn) [Compound 4, 9-Dihydroniddamycin B dimethyl acetal]: the MIC in assay [1] came out at 6.2 mg/L (≈ 7.45 µM); in the assay with Mycoplasma pneumoniae FH, 50 mg/L (≈ 60.1 µM).

As for `COC(CC1CC(C)C(=O)C=CC=CCC(C)OC(=O)CC(OC(C)=O)C(OC)C1OC1OC(C)C(OC2CC(C)(O)C(OC(=O)CC(C)C)C(C)O2)C(N(C)C)C1O)OC` (stereo not drawn) [Compound 6B, 3-(O)-Acetylniddamycin dimethyl acetal], the figures for the MIC (in assay [1]; in the assay on Mycoplasma pneumoniae FH) were 12.5 mg/L (≈ 14.3 µM) and 25 mg/L (≈ 28.7 µM), respectively.

As for `COC(CC1CC(C)C(O)C=CC=CCC(C)OC(=O)CC(OC(C)=O)C(OC)C1OC1OC(C)C(OC2CC(C)(O)C(OC(=O)CC(C)C)C(C)O2)C(N(C)C)C1O)OC` (stereo not drawn) [Compound 8B, 3-(O)-Acetyl-9-dihydroniddamycin B dimethyl acetal], the MIC in assay [1] was 25 mg/L (≈ 28.6 µM); with Mycoplasma pneumoniae FH, 50 mg/L (≈ 57.2 µM).
